These results are taken from patent publication US10166237B2, “Compounds and methods for inducing chondrogenesis” (The Scripps Research Institute, priority 2011, dated 2019).

Assay [1] concerns hMSCs. Nature of the assay: type II collagen expression in hMSC cultures (18 day assay). The following applies: for EC50: Homo sapiens. It is filed as cell-based, human. As for the experimental part:
The chondrogenic differentiation event was initiated quickly even though a fully differentiated chondrocyte phenotype cannot be assessed prior to 14 days in culture. In an 18 day assay, compound treatment was only required for the first 48 hrs and followed by removal and replacement of the media (in the absence of stimuli, FIG. 2B). The promotion of chondrogenic differentiation was not altered or enhanced upon longer treatment with the stimuli (data not shown).
(§1) Primary hMSCs were plated (10,000/well) in 384-well plates and cultured for 18 days. The cells were fixed with 4% formalin, permeabilized with triton (0.5%), digested with 0.5 mg/ml collagenase II to unwind the collagen fibrils, and then immunostained with an antibody recognizing type II collagen. DAPI (2 μg/ml) was added to visualize the nuclei. The chondrogenic nodules stained positive for type II collagen but lacked expression of type X collagen and osteocalcin, markers for chondrocyte hypertrophy and osteoblasts, respectively (not shown). 10,000 hMSCs (passages 3-5) were plated in Greiner 384-well low-bottom plates on day 1. The cells were allowed to adhere and stimulated for 48 hrs (days 2-3) with the indicated stimuli in MSC growth media (Millipore). The media was then removed and replaced with serum-free DMEM for an additional 16 days. This media was replenished on days 10 and 15 of the assay. Primary bovine chondrocytes were isolated from the articular surfaces from mature knees. After one week of culture, 8,500 cells were trypsinized and plated in Greiner 384-well white clear-bottom plates in growth media. […] 20 μl of the supernatant was mixed with 20 μl of the Greiss reagent and quantitated at 540 nm as described by the Promega kit instructions. Bovine cartilage explants (cut in circular explants in a 96 well plate) were cultured in the presence of 20 ng/ml TNFα and 10 ng/ml oncostatin M to induce GAG release for 72 hours (FIG. 2D). PRO1 was added at the indicated concentrations during the entire 72 hrs. […] Parafin sections were hydrated, incubated in low pH Antigen unmasking solution (Vector) at 90 C for 10 minutes, permeabilized with 0.1% collagenase II (only for the sections stained with type II collagen) for 10 minutes, blocked with CAS block for 10 minutes and then incubated with the primary antibody (type II collagen, aggrecan or Timp1) antibody (Abcam) overnight at 4 C. The antigens were visualized through standard ABC detection methods and developed with DAB. Representative of 3 sections stained/treatment group (independent experiments).

Assay [2] deals with primary bovine chondrocytes. In words: inhibition of cytokine-induced nitric oxide release (Greiss reaction). The class given is cell-based. The following applies: Bos taurus, Chondrocyte; second value of the cell (after the slash); TNFα and oncostatin M, 48 hours; read-out: NO INHIBTION μM IC50.
Description: (§2) In the screen, hMSCs were used as a surrogate to future targeting of the resident MSCs with the cartilage joint. It was in that setting upon which we identified PRO1. In a joint injury, the primary cell type a therapeutic would have contact with is the chondrocyte. Although cartilage or chondrocyte-targeted screening has not lead to the development of a successful drug modifying osteoarthritis drug (DMOAD) to date, it is believed that a stem cell-based therapeutic would protect and even repair the existing chondrocytes. Therefore, protection of the articular chondrocytes and cartilage from a mature bovine knee was assessed. PRO1 and its analogues were incubated with primary bovine chondrocytes or cartilage explants cultures grown in the presence of TNFα and oncostatin M to mimic the cytokine-induced damage that can occur during OA. In the presence of the cytokine cocktail, in vitro cultured primary chondrocytes released 4-5 fold more nitric oxide (NO) than the untreated chondrocytes (50 μM vs 10 μM) as measured by the Greiss reaction. In cells treated with the cytokine cocktail and PRO1, the small molecule could effectively block the release of NO by up to 70% FIG. 2C). Similarly, in ex vivo treated cartilage explants, cytokine-induced release of glycosaminoglycans (GAG) was reduced by up to 60% by PRO1 (FIG. 2D). Finally, hMSC were grown in pellet culture for 21 days.
as §1

The subject of assay [3] is human mesenchymal stem cells (hMSCs). In words: chondrogenic nodule formation by hMSCs (high throughput screen). The class given is cell-based. The following applies: Homo sapiens, Mesenchymal stem cells; first value of the cell (before the slash); read-out: CHONDROGENIC μM EC50. The procedure, abridged:
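Primary hMSCs (10^4/well) in serum-free DMEM exposed to compounds at 5 μM for 4 days. Chondrogenic nodules stained with Nile red (binds collagens) and counted by high-content imaging with 488 laser excitation. In 96-well follow-up, 50,000 cells/well treated 4 days, formalin-fixed, stained with 1 μg/ml Rhodamine B.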

For assay [4], the system named is bovine cartilage explants. Nature of the assay: cytokine-induced GAG release from cartilage explants ex vivo. The class given is cell-based. The following applies: 1 μM (or less); compared with PRO1.
Description: as §2, with “In cells treated with the cytokine cocktail and PRO1, the small molecule could effectively block the release of NO by up to 70% FIG. 2C). Similarly, in ex vivo treated cartilage explants, cytokine-induced release of glycosaminoglycans (GAG) was reduced by up to 60% by PRO1 (FIG. 2D). Finally, hMSC were grown in pellet culture for 21 days.” left out
Primary hMSCs were plated (10,000/well) in 384-well plates and cultured for 18 days. […] 20 μl of the supernatant was mixed with 20 μl of the Greiss reagent and quantitated at 540 nm as described by the Promega kit instructions. […]

Regarding `N#Cc1ccc(NC(=O)c2ccccc2C(=O)O)cc1` [AKT-CN], the EC50 in assay [1] is 0.108 µM; in assay [3], 0.137 µM. Moreover, the “induction of chondrogenic differentiation of hMSCs” value in assay [1] (compared with known inducers TGFβ3, BMP7 or BMP2, FIG. 2B) is “more potent and efficient”. In assay [2], the IC50 was 0.03 µM.

Consider `O=C(O)c1cc(F)ccc1C(=O)Nc1ccc(-c2ccccc2)cc1` [AKT-F], for which the 50% effective concentration (EC50) in assay [1] and in assay [3] was more than 10 µM each time. The IC50 in assay [2] was more than 10 µM.

For `Cc1ccc(C(=O)Nc2ccc(-c3ccccc3)cc2)c(C(=O)O)c1` [AKT-Me], the EC50 in assay [1] and in assay [3] was more than 10 µM each time. The IC50 in assay [2] is more than 10 µM.

As for `CCNC(=O)c1ccccc1C(=O)O` [AKT-NHEt], the 50% effective concentration (EC50) is more than 10 µM in assay [1] and 2.01 µM in assay [3]. In addition, the half-inhibitory concentration (IC50) in assay [2] was more than 10 µM.

As for `CNC(=O)c1ccccc1C(=O)O` [AKT-NHMe], the values for the EC50 in assay [1] and in assay [3] were 0.24 µM and 2.7 µM, respectively. Moreover, the IC50 in assay [2] is 0.0046 µM.

For the molecule `CC(C)CNC(=O)c1ccccc1C(=O)Nc1ccc(-c2ccccc2)cc1` [AKT-iPr], the EC50 is 6.98 µM in assay [1] and 0.0015 µM in assay [3]. Besides, the IC50 in assay [2] is more than 10 µM.

On to `O=C(O)c1ccccc1C(=O)Nc1ccc(C(F)(F)F)cc1` [Compound L4, 2-((4-(trifluoromethyl)phenyl)carbamoyl)benzoic acid], for which the EC50 in assay [1] amounted to 11.1 µM; in assay [3], 9.5 µM. Moreover, the IC50 in assay [2] was found to be 22.1 µM.

With `Cc1cncc(NC(=O)c2ccccc2C(=O)O)c1` [Compound L5], the EC50 is more than 10 µM in assay [1] and 0.6 µM in assay [3]. In assay [2], the IC50 worked out at 2.4 µM.

Regarding `Cc1ccc(NC(=O)c2ccccc2C(=O)O)cn1` [Compound L6], the concentration for a half-maximal effect (EC50) in assay [1] and in assay [3] was more than 10 µM throughout. In addition, the IC50 in assay [2] is more than 10 µM.

For `O=C(O)c1ccccc1C(=O)Nc1ccc(I)cc1` [Compound L11a, 2-((4-iodophenyl)carbamoyl)benzoic acid], the EC50 in assay [1] and in assay [3] was more than 10 µM each time. Further, the IC50 in assay [2] is more than 10 µM.

`O=C(O)c1ccccc1C(=O)Nc1ccc(CCO)cc1` [Compound L11c, 2-((4-(2-hydroxyethyl)phenyl)carbamoyl)benzoic acid]: the EC50 in assay [1] is more than 10 µM; in assay [3], 0.125 µM. For the same molecule, the IC50 in assay [2] is more than 10 µM.

As to `N#CCc1ccc(NC(=O)c2ccccc2C(=O)O)cc1` [Compound L13], the concentration for a half-maximal effect (EC50) in assay [1] and in assay [3] was more than 10 µM in each case. In assay [2], the half-inhibitory concentration (IC50) was more than 10 µM.

Turning to `O=C(O)c1cc(S(=O)(=O)c2ccc(C(=O)Nc3ccc(-c4ccccc4)cc3)c(C(=O)O)c2)ccc1C(=O)Nc1ccc(-c2ccccc2)cc1` [LK4], the EC50 in assay [1] worked out at 33.3 µM; in assay [3] it was 3.8 µM. Besides, the IC50 in assay [2] was more than 10 µM.

As to `O=C(O)c1ccccc1C(=O)Nc1ccc(N2CCOCC2)cc1` [LK6, 2-((4-morpholinophenyl)carbamoyl)benzoic acid], the EC50 in assay [1] is more than 10 µM; in assay [3], 9.1 µM. For the same molecule, the IC50 in assay [2] is more than 10 µM.

As for `O=C(O)c1ccccc1C(=O)Nc1ccc(Nc2ccccc2)cc1` [LK7], the concentration giving a half-maximal response (EC50) in assay [1] and in assay [3] was more than 10 µM each time. Further, the IC50 in assay [2] is more than 10 µM.

For `NS(=O)(=O)c1ccc(NC(=O)c2ccccc2C(=O)O)cc1` [LK8], the values for the EC50 in assay [1] and in assay [3] were more than 10 µM and 9.1 µM, respectively. Also, in assay [2], the 50% inhibitory concentration (IC50) is more than 10 µM.

In the case of `O=C(O)c1ccccc1C(=O)Nc1ccc(CCCc2ccccn2)cc1` [LK15, 2-((4-(3-(pyridin-2-yl)propyl)phenyl)carbamoyl)benzoic acid], the EC50 in assay [1] is more than 10 µM; in assay [3] it was 0.12 µM. Besides, the IC50 in assay [2] is more than 10 µM.

Consider `O=C(O)c1ccccc1C(=O)Nc1ccc(-c2ccccc2)cc1` [LK18b], for which the EC50 in assay [1] was 0.05 µM; in assay [3] it was 0.0015 µM. Further, in assay [2], the IC50 amounted to 2.7 µM.

Regarding `Cc1ccc(C(=O)Nc2ccc(C#N)cc2)cc1` [LK20b], the values for the concentration giving a half-maximal response (EC50) in assay [1] and in assay [3] were more than 10 µM and 0.014 µM, respectively. In addition, the half-maximal inhibitory concentration (IC50) in assay [2] is more than 10 µM.

As to `O=C(O)c1cc(O)ccc1C(=O)Nc1ccc(-c2ccccc2)cc1` [LK22b, 2-([1,1′-biphenyl]-4-ylcarbamoyl)-5-hydroxybenzoic acid], the EC50 in assay [1] was more than 10 µM; in assay [3], 0.0046 µM. Further, in assay [2], the IC50 is more than 10 µM.

Turning to `O=C(O)c1ccccc1C(=O)Nc1ncc(-c2ccc(F)c(F)c2)s1` [LK35], the EC50 in assay [1] and in assay [3] was more than 10 µM each time. Also, the IC50 in assay [2] was found to be 0.03 µM.

Consider `C[C@@H](C(=O)Nc1ccc(Cl)cn1)N1Cc2ccccc2C1=O` [SMA-1*], for which the EC50 is 0.37 µM in assay [1] and more than 10 µM in assay [3]. In addition, the IC50 in assay [2] was found to be 0.04 µM.

B1: TGFβ3: "known inducers of chondrogenic differentiation (TGFβ3, BMP7 or BMP2)" (protein, UniProt P10600 301-412, looked up)
Transforming growth factor …: ALDTNYCFRNLEENCCVRPLYIDFRQDLGWKWVHEPKGYYANFCSGPCPYLRSADTTHSTVLGLYNTLNPEASASPCCVPQDLEPLTILYYVGRTPKVEQLSNMVVKSCKCS
As for B1, in assay [4], the chondro-protective activities result was “did not have the same degree of chondro-protective activities”.

What is called EC50 is the concentration that produces a half-maximal response. Broadly, the IC50 is the concentration that inhibits the measured activity by half.
